Data published in article PMC7205606, “Characterization of a toxin-antitoxin system in Mycobacterium tuberculosis suggests neutralization by phosphorylation as the antitoxicity mechanism” (Communications Biology, 2020).

How the values were obtained:
TakA (Rv1044), MBP-TakA = TakA (Rv1044), MBP-TakA (Mycobacterium tuberculosis, UniProt P96357)
TglT (Rv1045) = TglT (Rv1045) (Mycobacterium tuberculosis, UniProt P96356)
Chain of TglT (Rv1045) (P96356 1-293 limits assumed): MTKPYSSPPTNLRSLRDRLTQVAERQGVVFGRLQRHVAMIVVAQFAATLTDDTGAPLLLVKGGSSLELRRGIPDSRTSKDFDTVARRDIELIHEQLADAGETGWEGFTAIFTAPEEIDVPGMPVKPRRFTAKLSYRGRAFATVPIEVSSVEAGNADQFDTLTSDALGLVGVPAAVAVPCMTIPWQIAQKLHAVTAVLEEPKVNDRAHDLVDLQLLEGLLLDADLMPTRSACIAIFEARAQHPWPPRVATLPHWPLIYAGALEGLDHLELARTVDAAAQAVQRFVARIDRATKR

Chain of TakA (Rv1044), MBP-TakA (P96357 entry or part of it): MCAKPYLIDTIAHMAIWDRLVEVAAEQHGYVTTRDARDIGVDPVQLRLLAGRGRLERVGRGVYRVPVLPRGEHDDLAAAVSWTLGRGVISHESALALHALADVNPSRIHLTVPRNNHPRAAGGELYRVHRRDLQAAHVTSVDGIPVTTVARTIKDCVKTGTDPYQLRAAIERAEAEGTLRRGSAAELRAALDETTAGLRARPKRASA

## Nc1ncnc2c1ncn2[C@@H]1O[C@H](COP(=O)(O)OP(=O)(O)OP(=O)(O)O)[C@@H](O)[C@H]1O [ATP]
TakA (Rv1044), MBP-TakA
  in vitro kinase assay, 32P transfer to TglT, SDS-PAGE: When incubating MBP-TakA with TglT (Fig. 5a), we detected radioactively labeled TglT species in SDS-PAGE.

## Nc1nc2c(ncn2[C@@H]2O[C@H](COP(=O)(O)OP(=O)(O)OP(=O)(O)O)[C@@H](O)[C@H]2O)c(=O)[nH]1 [GTP]
TglT (Rv1045)
  native-PAGE autoradiography with unlabelled NTP competition: We conclude that TglT specifically binds GTP.
